Measurements: ChEMBL document CHEMBL1141535, “Benzothiazole based inhibitors of p38alpha MAP kinase” (Bioorg Med Chem Lett, 2008)

Legend:
[1] = target: Mitogen-activated protein kinase 14 (Homo sapiens, UniProt Q16539); test: Inhibition of p38alpha
PBMC = test: Inhibition of LPS-induced TNFalpha production in human PBMC; format: functional, cell-based
[2] = target: Tyrosine-protein kinase HCK (Homo sapiens) (UniProt P08631); test: Inhibition of Hck at 10 uM
[3] = target: Tyrosine-protein kinase Yes (Homo sapiens) (UniProt P07947); test: Inhibition of Yes at 10 uM
[4] = target: Epidermal growth factor receptor (Homo sapiens) (UniProt P00533); test: Inhibition of EGFR at 10 uM
[5] = target: Platelet-derived growth factor receptor beta (Homo sapiens) (UniProt P09619); test: Inhibition of PDGFRbeta at 10 uM
[6] = target: Tyrosine-protein kinase Fes/Fps (Homo sapiens) (UniProt P07332); test: Inhibition of FES at 10 uM
[7] = target: Megakaryocyte-associated tyrosine-protein kinase (Homo sapiens) (UniProt P42679); test: Inhibition of Hyl at 10 uM
[8] = target: Protein kinase C beta type (Homo sapiens) (UniProt P05771); test: Inhibition of PKC-beta-2 at 10 uM
[9] = target: Protein kinase C beta type (Homo sapiens) (UniProt P05771); test: Inhibition of PKCbeta1 at 10 uM
[10] = target: Calcium/calmodulin-dependent protein kinase type II subunit alpha (Homo sapiens) (UniProt Q9UQM7); test: Inhibition of CaMK2-alpha at 10 uM
[11] = target: RAC-alpha serine/threonine-protein kinase (Homo sapiens) (UniProt P31749); test: Inhibition of Atk1 at 10 uM
[12] = target: Protein kinase C alpha type (Homo sapiens) (UniProt P17252); test: Inhibition of PKCalpha at 10 uM
[13] = target: Protein-tyrosine kinase 6 (Homo sapiens) (UniProt Q13882); test: Inhibition of Brk at 10 uM
[14] = target: Tyrosine-protein kinase ABL1 (Homo sapiens) (UniProt P00519); test: Inhibition of Abl at 10 uM
[15] = target: Ephrin type-B receptor 4 (Homo sapiens) (UniProt P54760); test: Inhibition of EphB4 at 10 uM
[16] = target: Tyrosine-protein kinase BTK (Homo sapiens) (UniProt Q06187); test: Inhibition of Btk at 10 uM
[17] = target: Cytoplasmic tyrosine-protein kinase BMX (Homo sapiens) (UniProt P51813); test: Inhibition of Bmx at 10 uM
[18] = target: Hepatocyte growth factor receptor (Homo sapiens) (UniProt P08581); test: Inhibition of cMET at 10 uM
[19] = target: Proto-oncogene tyrosine-protein kinase Src (Homo sapiens) (UniProt P12931); test: Inhibition of Src at 10 uM
[20] = target: MAP kinase-activated protein kinase 2 (Homo sapiens) (UniProt P49137); test: Inhibition of MAPKAP-K2 at 10 uM
[21] = Bioavailability in Sprague-Dawley rat at 5 mg/kg, po; format: ADME, organism-based; conditions: in vivo
[22] = target: Fibroblast growth factor receptor 3 (Homo sapiens) (UniProt P22607); test: Inhibition of FGFR3 at 10 uM
[23] = target: Protein kinase C delta type (Homo sapiens) (UniProt Q05655); test: Inhibition of PKCdelta at 10 uM
[24] = target: Serine/threonine-protein kinase Chk2 (Homo sapiens) (UniProt O96017); test: Inhibition of CHK2 at 10 uM
[25] = target: Fibroblast growth factor receptor 4 (Homo sapiens) (UniProt P22455); test: Inhibition of FGFR4 at 10 uM
[26] = target: Phosphorylase b kinase gamma catalytic chain, liver/testis isoform (Homo sapiens) (UniProt P15735); test: Inhibition of PHKG2 at 10 uM
[27] = Inhibition of PKA at 10 uM
[28] = target: Tyrosine-protein kinase Fgr (Homo sapiens) (UniProt P09769); test: Inhibition of Fgr at 10 uM
[29] = target: Serine/threonine-protein kinase Nek2 (Homo sapiens) (UniProt P51955); test: Inhibition of NEK2 at 10 uM
[30] = target: Receptor-type tyrosine-protein kinase FLT3 (Homo sapiens) (UniProt P36888); test: Inhibition of Flt3 at 10 uM
[31] = target: Insulin-like growth factor 1 receptor (Homo sapiens) (UniProt P08069); test: Inhibition of IGF1R at 10 uM
[32] = target: Glycogen synthase kinase-3 beta (Homo sapiens) (UniProt P49841); test: Inhibition of GSK3-beta at 10 uM
[33] = target: MAP kinase-activated protein kinase 5 (Homo sapiens) (UniProt Q8IW41); test: Inhibition of MAPKAP-K5 at 10 uM
[34] = target: Ephrin type-A receptor 3 (Homo sapiens) (UniProt P29320); test: Inhibition of EphA3 at 10 uM
[35] = target: Mitogen-activated protein kinase 1 (Homo sapiens) (UniProt P28482); test: Inhibition of ERK2 at 10 uM
[36] = target: Serine/threonine-protein kinase Chk1 (Homo sapiens) (UniProt O14757); test: Inhibition of CHK1 at 10 uM
[37] = target: Ribosomal protein S6 kinase alpha-3 (Homo sapiens) (UniProt P51812); test: Inhibition of RSK2 at 10 uM
[38] = target: Tyrosine-protein kinase Fyn (Homo sapiens) (UniProt P06241); test: Inhibition of Fyn at 10 uM
[39] = target: Fibroblast growth factor receptor 1 (Homo sapiens) (UniProt P11362); test: Inhibition of FGFR1 at 10 uM
[40] = target: Tyrosine-protein kinase Lyn (Homo sapiens) (UniProt P07948); test: Inhibition of Lyn A at 10 uM
[41] = Half life in Sprague-Dawley rat at 2 mg/kg, iv; format: ADME, organism-based; design: dose 2 mg/kg, route intravenous; conditions: in vivo
[42] = target: Casein kinase II subunit alpha (Homo sapiens) (UniProt P68400); test: Inhibition of CK2-alpha-1 at 10 uM
[43] = AUC in Sprague-Dawley rat at 5 mg/kg, po; format: ADME, organism-based; design: dose 5 mg/kg, route oral; conditions: plasma
[44] = Clearance in Sprague-Dawley rat at 2 mg/kg, iv; format: ADME, organism-based; design: dose 2 mg/kg, route intravenous; conditions: in vivo
[45] = target: Glycogen synthase kinase-3 alpha (Homo sapiens) (UniProt P49840); test: Inhibition of GSK3-alpha at 10 uM
[46] = target: Protein kinase C gamma type (Homo sapiens) (UniProt P05129); test: Inhibition of PKCgamma at 10 uM
[47] = target: Fibroblast growth factor receptor 2 (Homo sapiens) (UniProt P21802); test: Inhibition of FGFR2 at 10 uM
[48] = target: Tyrosine-protein kinase Lyn (Homo sapiens) (UniProt P07948); test: Inhibition of Lyn B at 10 uM
[49] = target: RAC-beta serine/threonine-protein kinase (Homo sapiens) (UniProt P31751); test: Inhibition of Atk2 at 10 uM
[50] = target: Tyrosine-protein kinase Blk (Homo sapiens) (UniProt P51451); test: Inhibition of Blk at 10 uM
[51] = target: Interleukin-1 receptor-associated kinase 4 (Homo sapiens) (UniProt Q9NWZ3); test: Inhibition of IRAK4 at 10 uM
[52] = target: RAC-gamma serine/threonine-protein kinase (Homo sapiens) (UniProt Q9Y243); test: Inhibition of Atk3 at 10 uM
[53] = target: Mitogen-activated protein kinase 3 (Homo sapiens) (UniProt P27361); test: Inhibition of ERK1 at 10 uM
[54] = target: Tyrosine-protein kinase Lck (Homo sapiens) (UniProt P06239); test: Inhibition of Lck at 10 uM
[55] = target: MAP kinase-activated protein kinase 3 (Homo sapiens) (UniProt Q16644); test: Inhibition of MAPKAP-K3 at 10 uM
[56] = target: Tyrosine-protein kinase CSK (Homo sapiens) (UniProt P41240); test: Inhibition of Csk at 10 uM

Sequence of Mitogen-activated protein kinase 14 (Q16539 whole entry): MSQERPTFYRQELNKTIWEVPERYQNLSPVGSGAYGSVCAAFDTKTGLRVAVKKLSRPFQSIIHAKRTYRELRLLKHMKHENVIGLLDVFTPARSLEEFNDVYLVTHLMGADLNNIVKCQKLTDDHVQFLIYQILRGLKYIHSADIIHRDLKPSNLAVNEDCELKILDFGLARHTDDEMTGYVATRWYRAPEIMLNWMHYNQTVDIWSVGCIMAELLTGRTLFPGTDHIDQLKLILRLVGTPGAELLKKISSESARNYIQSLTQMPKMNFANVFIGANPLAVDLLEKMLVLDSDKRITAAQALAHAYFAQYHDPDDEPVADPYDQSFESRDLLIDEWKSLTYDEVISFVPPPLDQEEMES
Sequence of Protein kinase C beta type (Homo sapiens) (P05771 2-671 limits assumed): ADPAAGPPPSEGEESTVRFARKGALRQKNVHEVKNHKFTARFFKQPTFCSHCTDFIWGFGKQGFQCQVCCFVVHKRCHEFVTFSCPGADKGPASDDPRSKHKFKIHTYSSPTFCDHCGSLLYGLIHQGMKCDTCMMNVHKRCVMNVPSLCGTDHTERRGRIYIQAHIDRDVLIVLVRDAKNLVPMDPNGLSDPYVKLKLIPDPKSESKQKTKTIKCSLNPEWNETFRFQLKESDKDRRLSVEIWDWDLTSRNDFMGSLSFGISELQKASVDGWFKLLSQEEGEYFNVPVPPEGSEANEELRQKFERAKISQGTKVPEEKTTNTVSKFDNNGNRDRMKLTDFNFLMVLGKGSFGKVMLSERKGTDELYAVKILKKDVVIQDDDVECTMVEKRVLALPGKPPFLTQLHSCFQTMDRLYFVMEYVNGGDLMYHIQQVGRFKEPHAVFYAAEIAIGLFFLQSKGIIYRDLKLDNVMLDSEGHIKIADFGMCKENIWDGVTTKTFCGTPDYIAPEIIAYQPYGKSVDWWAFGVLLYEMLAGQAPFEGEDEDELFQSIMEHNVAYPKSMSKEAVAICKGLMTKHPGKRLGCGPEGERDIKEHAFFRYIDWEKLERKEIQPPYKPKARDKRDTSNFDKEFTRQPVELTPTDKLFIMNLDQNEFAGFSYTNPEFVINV
Sequence of Tyrosine-protein kinase Lyn (Homo sapiens) (P07948 2-512 limits assumed): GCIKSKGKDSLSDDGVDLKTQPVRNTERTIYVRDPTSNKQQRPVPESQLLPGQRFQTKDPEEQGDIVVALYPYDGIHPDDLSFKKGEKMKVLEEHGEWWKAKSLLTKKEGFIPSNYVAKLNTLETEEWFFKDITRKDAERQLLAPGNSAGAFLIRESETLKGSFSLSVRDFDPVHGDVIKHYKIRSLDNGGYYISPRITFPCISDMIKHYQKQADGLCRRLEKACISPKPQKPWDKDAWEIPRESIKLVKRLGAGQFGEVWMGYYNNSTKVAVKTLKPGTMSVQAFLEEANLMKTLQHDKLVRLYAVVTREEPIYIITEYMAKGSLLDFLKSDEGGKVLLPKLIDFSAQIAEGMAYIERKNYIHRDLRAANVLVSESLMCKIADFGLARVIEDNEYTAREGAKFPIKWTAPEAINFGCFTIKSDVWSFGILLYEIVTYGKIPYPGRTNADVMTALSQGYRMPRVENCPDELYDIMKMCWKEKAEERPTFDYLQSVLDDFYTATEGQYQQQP
Sequence of Tyrosine-protein kinase Lck (Homo sapiens) (P06239 2-509 limits assumed): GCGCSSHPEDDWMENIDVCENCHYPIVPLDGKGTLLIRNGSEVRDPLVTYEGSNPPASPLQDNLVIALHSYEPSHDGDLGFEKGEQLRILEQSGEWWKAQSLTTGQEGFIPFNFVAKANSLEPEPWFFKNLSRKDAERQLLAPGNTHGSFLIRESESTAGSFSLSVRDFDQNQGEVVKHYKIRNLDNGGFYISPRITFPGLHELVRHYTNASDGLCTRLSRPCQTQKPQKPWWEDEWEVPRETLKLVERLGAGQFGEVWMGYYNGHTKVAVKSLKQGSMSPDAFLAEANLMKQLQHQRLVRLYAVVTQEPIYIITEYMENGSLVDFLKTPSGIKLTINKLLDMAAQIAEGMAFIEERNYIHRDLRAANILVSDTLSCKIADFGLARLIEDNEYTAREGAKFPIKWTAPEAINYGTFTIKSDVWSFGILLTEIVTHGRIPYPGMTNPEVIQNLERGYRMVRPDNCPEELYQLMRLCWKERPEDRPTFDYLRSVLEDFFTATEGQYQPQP
Sequence of MAP kinase-activated protein kinase 2 (Homo sapiens) (P49137 whole entry, looked up): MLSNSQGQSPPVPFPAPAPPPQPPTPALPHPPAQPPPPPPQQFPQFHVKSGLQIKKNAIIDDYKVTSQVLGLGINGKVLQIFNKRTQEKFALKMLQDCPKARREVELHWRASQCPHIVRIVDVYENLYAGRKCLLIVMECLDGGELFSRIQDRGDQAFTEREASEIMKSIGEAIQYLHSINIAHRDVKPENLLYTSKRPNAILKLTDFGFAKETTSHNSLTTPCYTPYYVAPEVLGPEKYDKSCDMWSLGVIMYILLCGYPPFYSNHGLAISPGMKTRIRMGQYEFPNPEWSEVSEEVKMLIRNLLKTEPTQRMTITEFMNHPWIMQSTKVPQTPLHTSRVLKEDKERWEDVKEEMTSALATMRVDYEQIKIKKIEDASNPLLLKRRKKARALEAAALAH
Sequence of Serine/threonine-protein kinase Nek2 (Homo sapiens) (P51955 whole entry): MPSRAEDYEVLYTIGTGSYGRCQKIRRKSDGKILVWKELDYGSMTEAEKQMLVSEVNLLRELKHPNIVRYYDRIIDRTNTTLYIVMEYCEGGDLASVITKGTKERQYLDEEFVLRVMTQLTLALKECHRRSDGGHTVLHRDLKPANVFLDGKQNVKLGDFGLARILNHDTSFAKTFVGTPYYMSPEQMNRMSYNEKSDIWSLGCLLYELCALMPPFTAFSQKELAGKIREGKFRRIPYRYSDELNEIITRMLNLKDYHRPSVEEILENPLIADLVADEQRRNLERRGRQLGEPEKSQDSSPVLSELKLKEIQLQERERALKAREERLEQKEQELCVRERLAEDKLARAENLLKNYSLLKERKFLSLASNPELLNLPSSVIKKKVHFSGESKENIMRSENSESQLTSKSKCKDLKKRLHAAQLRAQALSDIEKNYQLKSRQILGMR
Sequence of Ephrin type-A receptor 3 (Homo sapiens) (P29320 whole entry): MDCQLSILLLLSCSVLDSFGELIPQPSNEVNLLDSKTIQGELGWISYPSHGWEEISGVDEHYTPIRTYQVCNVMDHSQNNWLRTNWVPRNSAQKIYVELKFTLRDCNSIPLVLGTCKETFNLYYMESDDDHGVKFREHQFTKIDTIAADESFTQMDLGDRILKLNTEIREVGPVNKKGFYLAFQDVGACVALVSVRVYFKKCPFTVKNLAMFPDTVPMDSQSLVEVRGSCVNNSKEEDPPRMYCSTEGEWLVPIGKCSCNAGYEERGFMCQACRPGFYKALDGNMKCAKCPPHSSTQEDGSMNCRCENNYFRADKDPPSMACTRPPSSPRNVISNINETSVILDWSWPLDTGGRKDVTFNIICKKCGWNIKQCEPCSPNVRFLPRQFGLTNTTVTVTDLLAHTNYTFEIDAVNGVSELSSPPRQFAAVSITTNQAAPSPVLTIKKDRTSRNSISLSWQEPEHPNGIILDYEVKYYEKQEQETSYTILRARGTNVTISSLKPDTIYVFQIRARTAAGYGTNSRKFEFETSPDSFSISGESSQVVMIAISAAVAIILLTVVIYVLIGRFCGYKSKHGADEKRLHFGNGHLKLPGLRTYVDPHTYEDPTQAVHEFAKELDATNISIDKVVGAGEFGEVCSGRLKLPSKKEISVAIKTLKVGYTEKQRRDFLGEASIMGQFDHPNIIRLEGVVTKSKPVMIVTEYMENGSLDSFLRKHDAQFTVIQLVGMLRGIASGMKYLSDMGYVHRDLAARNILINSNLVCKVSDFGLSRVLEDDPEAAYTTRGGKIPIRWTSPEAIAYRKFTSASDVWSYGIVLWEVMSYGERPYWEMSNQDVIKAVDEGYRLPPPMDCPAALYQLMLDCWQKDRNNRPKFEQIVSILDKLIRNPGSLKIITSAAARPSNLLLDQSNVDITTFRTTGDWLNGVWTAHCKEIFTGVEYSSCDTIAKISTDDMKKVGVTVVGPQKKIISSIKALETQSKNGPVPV
Sequence of Tyrosine-protein kinase HCK (Homo sapiens) (P08631 2-526 limits assumed): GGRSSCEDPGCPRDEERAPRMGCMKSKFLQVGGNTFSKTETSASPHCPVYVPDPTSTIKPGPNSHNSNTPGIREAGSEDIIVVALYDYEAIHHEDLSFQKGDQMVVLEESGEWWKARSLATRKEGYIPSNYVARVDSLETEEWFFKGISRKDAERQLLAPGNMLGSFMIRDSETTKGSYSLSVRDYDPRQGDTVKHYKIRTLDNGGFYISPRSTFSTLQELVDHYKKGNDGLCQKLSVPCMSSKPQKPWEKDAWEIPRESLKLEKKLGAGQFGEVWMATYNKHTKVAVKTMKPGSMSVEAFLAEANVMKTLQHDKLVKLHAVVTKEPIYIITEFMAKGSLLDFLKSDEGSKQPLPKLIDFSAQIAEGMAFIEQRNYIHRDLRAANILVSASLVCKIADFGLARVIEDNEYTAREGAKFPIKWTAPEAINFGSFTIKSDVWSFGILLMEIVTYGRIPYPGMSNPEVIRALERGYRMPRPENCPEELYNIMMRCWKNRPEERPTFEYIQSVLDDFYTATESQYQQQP
Sequence of Interleukin-1 receptor-associated kinase 4 (Homo sapiens) (Q9NWZ3 whole entry): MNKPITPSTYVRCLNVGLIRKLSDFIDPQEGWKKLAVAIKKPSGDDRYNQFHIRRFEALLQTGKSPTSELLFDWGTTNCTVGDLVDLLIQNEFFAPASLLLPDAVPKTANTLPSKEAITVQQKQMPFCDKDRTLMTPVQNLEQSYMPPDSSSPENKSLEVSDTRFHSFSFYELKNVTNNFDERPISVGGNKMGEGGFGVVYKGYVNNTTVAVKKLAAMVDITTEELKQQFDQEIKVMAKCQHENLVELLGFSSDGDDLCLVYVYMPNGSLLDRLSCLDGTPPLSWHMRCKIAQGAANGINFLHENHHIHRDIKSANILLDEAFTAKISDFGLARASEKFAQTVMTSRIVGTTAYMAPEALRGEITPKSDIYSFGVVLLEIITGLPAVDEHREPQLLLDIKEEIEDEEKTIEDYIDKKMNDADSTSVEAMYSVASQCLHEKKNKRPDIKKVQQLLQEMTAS

## Cc1ccc(-n2nccc2-c2ccc3nc(NC(C)C)sc3c2)cc1
[1]
  IC50: > 1000 nM

## Cc1ccccc1-n1nccc1-c1ccc2nc(NC(C)C)sc2c1
[1]
  IC50: 146 nM

## CC[C@H](C)Nc1nc2ccc(-c3[nH]cnc3-c3ccccc3F)cc2s1
PBMC
  IC50: 20 nM
[1]
  IC50: 2.7 nM

## CC[C@@H](C)Nc1nc2ccc(-c3c(-c4ccccc4F)nn(C)c3N)cc2s1
PBMC
  IC50: 118 nM
[1]
  IC50: 11 nM

## CC(C)Nc1nc2ccc(-c3ccnn3-c3cccc(F)c3)cc2s1
PBMC
  IC50: 171 nM
[1]
  IC50: 33 nM

## Nc1nc2ccc(-c3ocnc3-c3ccccc3F)cc2s1
PBMC
  IC50: 247 nM
[1]
  IC50: 16 nM

## CC(C)Nc1nc2ccc(-c3[nH]cnc3-c3ccccc3F)cc2s1
PBMC
  IC50: 35 nM
[1]
  IC50: 3.3 nM

## CC(C)Nc1nc2ccc(-c3ccnn3-c3ccccc3)cc2s1
PBMC
  IC50: 213 nM
[1]
  IC50: 21 nM

## Cc1cccc(-n2nccc2-c2ccc3nc(NC(C)C)sc3c2)c1
PBMC
  IC50: 171 nM
[1]
  IC50: 33 nM

## CC(C)Nc1nc2ccc(-c3ocnc3-c3ccccc3)cc2s1
PBMC
  IC50: 96 nM
[1]
  IC50: 21 nM

## CC[C@H](C)Nc1nc2ccc(-c3ocnc3-c3ccccc3F)cc2s1
PBMC
  IC50: 30 nM
[1]
  IC50: 10 nM

## Fc1ccccc1-c1ncoc1-c1ccc2ncsc2c1
PBMC
  IC50: > 250 nM
[1]
  IC50: 47 nM

## CC[C@@H](C)Nc1nc2ccc(-c3ocnc3-c3ccccc3F)cc2s1
PBMC
  IC50: 27 nM
[1]
  IC50: 6.5 nM

## CC(C)Nc1nc2ccc(-c3[nH]cnc3-c3ccccc3)cc2s1
PBMC
  IC50: 107 nM
[1]
  IC50: 7.1 nM

## CCNc1nc2ccc(-c3ocnc3-c3ccccc3F)cc2s1
PBMC
  IC50: 167 nM
[1]
  IC50: 12 nM

## CC(C)Nc1nc2ccc(-c3ocnc3-c3ccccc3F)cc2s1
PBMC
  IC50: 40 nM

## CC(C)Nc1nc2ccc(-c3ccnn3-c3ccccc3Cl)cc2s1
[1]
  IC50: 175 nM

## CC[C@H](C)Nc1nc2ccc(-c3c(-c4ccccc4F)n[nH]c3N)cc2s1
PBMC
  IC50: 77 nM
[1]
  IC50: 5.5 nM

## CC(C)Nc1nc2ccc(-c3ccnn3-c3cccc(Cl)c3)cc2s1
PBMC
  IC50: 232 nM
[1]
  IC50: 72 nM

## CC[C@@H](C)Nc1nc2ccc(-c3c(-c4ccccc4F)n[nH]c3N)cc2s1
[2]
  inhibition: < 20%
[3]
  inhibition: < 20%
[4]
  inhibition: < 20%
[5]
  inhibition: < 20%
[6]
  inhibition: < 20%
[7]
  inhibition: < 20%
[8]
  inhibition: < 20%
[9]
  inhibition: < 20%
[10]
  inhibition: < 20%
[11]
  inhibition: < 20%
[12]
  inhibition: < 20%
[13]
  inhibition: < 20%
[14]
  inhibition: 65%
[15]
  inhibition: < 20%
[16]
  inhibition: < 20%
[17]
  inhibition: < 20%
[18]
  inhibition: < 20%
[19]
  inhibition: < 20%
[20]
  inhibition: < 20%
[21]
  bioavailability: 24%
[22]
  inhibition: < 20%
[23]
  inhibition: < 20%
[24]
  inhibition: < 20%
[25]
  inhibition: < 20%
[26]
  inhibition: < 20%
[27]
  inhibition: < 20%
PBMC
  IC50: 39 nM
[28]
  inhibition: 54%
[29]
  inhibition: < 20%
[30]
  inhibition: 68%
[31]
  inhibition: < 20%
[32]
  inhibition: < 20%
[33]
  inhibition: < 20%
[34]
  inhibition: < 20%
[35]
  inhibition: < 20%
[36]
  inhibition: < 20%
[37]
  inhibition: < 20%
[38]
  inhibition: < 20%
[39]
  inhibition: < 20%
[40]
  inhibition: < 20%
[41]
  half-life: 1.7 h
[42]
  inhibition: < 20%
[43]
  AUC: 2.27 µM·h
[44]
  clearance: 23.3 mL/min/kg
[45]
  inhibition: < 20%
[46]
  inhibition: < 20%
[47]
  inhibition: < 20%
[48]
  inhibition: < 20%
[49]
  inhibition: < 20%
[50]
  inhibition: < 20%
[1]
  IC50: 3.2 nM
[51]
  inhibition: < 20%
[52]
  inhibition: < 20%
[53]
  inhibition: < 20%
[54]
  inhibition: < 20%
[55]
  inhibition: < 20%
[56]
  inhibition: < 20%

## CC(C)Nc1nc2ccc(-c3ccnn3-c3ccc(F)cc3)cc2s1
PBMC
  IC50: > 250 nM
[1]
  IC50: 48 nM

## CC(C)Nc1nc2ccc(-c3ccnn3-c3ccccc3F)cc2s1
PBMC
  IC50: 249 nM
[1]
  IC50: 20 nM

## CC[C@@H](C)Nc1nc2ccc(-c3[nH]cnc3-c3ccccc3F)cc2s1
PBMC
  IC50: 13 nM
[1]
  IC50: 1.6 nM

## CC(C)Nc1nc2ccc(-c3ccnn3-c3ccc(Cl)cc3)cc2s1
[1]
  IC50: > 1000 nM

## CC[C@@H](C)Nc1nc2ccc(-c3c(-c4ccccc4F)nn(CC)c3N)cc2s1
PBMC
  IC50: > 250 nM
[1]
  IC50: 17 nM

## CC(C)Nc1nc2ccc(-c3c(-c4ccccc4F)n[nH]c3N)cc2s1
PBMC
  IC50: 51 nM
[1]
  IC50: 3.7 nM
